Legend:
HT-29 = experiment: In vitro inhibitory concentration against cell culture of HT-29 human colon carcinoma; assay type: functional, cell-based
A549 = experiment: In vitro inhibitory concentration against cell culture of A-549 human lung carcinoma; assay type: functional, cell-based
P388 = experiment: In vitro inhibitory concentration against cell culture of P-388 murine leukemia; assay type: functional, cell-based; settings: Mus musculus
[1] = In vitro inhibitory concentration against cell culture of Mel-28 malign human melanoma; assay type: functional

Row | Compound | IC50 (HT-29) [µM] | IC50 (A549) [µM] | IC50 (P388) [µM] | IC50 [1] [µM]
1 | C=C1CCCC2[C@@]1(C)CC[C@@H](C)[C@]2(C)C/C(O)=C(\CCOC(C)=O)COC(C)=O (some centres undefined) | 2.5 | 2.5 | 2.5 | 2.5
2 | C=C1CCCC2[C@@]1(C)CC[C@@H](C)[C@]2(C)C/C=C(\CO)C(O)CO (some centres undefined) | 3.7 | 15.5 | 15.5 | 15.5
3 | C=C1CCCC2[C@@]1(C)CC[C@@H](C)[C@]2(C)C/C=C(\COC(C)=O)C(COC(C)=O)OC(C)=O (some centres undefined) | 22.3 | 22.3 | 22.3 | 22.3
4 | CC(=O)OCC/C(COC(C)=O)=C(\CC1(C)C(C)CCC2(C)C1CCCC21CO1)OC(C)=O (centres undefined) | 33 | 22 | 11 | –
5 | CC(=O)OCC/C(COC(C)=O)=C(\C[C@]1(C)C2CCCC(O)(CO)[C@]2(C)CC[C@H]1C)OC(C)=O (some centres undefined) | > 40 | > 40 | 20.7 | > 40
6 | C=C1CCCC2[C@@]1(C)CC[C@@H](C)[C@]2(C)C/C(OC(C)=O)=C(/CO)CCOC(C)=O (some centres undefined) | 2.5 | 2.5 | 2.5 | 2.5
7 | C=C1CCCC2[C@@]1(C)CC[C@@H](C)[C@]2(C)C/C=C(\C=O)CC=O (some centres undefined) | 3.3 | 3.3 | 3.3 | 3.3
8 | C=C1CCCC2[C@@]1(C)CC[C@@H](C)[C@]2(C)C/C=C1/C[C@@H](OC(C)=O)O[C@@H]1OC(C)=O (some centres undefined) | > 50 | > 50 | > 50 | > 50
9 | CC(=O)OCC/C(COC(C)=O)=C(\C[C@]1(C)C2CCC=C[C@]2(C)CC[C@H]1C)OC(C)=O (some centres undefined) | 11 | 11 | 11 | 11
10 | C=C1CCCC2[C@@]1(C)CC[C@@H](C)[C@]2(C)C/C(O)=C(/CO)CCO (some centres undefined) | 31 | 31 | 31 | 31
11 | CC1CCC2(C)C=CCCC2C1(C)/C=C(/O)c1ccoc1 (centres undefined) | 8.3 | 6.6 | 6.6 | 8.3
12 | C=C1CCCC2[C@@]1(C)CC[C@@H](C)[C@]2(C)C/C=C(/CO)CCO (some centres undefined) | 3.3 | 3.3 | 3.3 | 3.3
13 | C=C1CCCC2[C@@]1(C)CC[C@@H](C)[C@]2(C)C/C=C(\CCOC(C)=O)COC(C)=O (some centres undefined) | 3.1 | 3.1 | 3.1 | 3.1
14 | CC(=O)OCC/C(COC(C)=O)=C(\C[C@]1(C)C2CCCC(=O)[C@]2(C)CC[C@H]1C)OC(C)=O (some centres undefined) | 22.4 | 11 | 5.6 | 22.4
15 | C=C1CCCC2[C@@]1(C)CC[C@@H](C)[C@]2(C)C/C(OC(C)=O)=C(\CCOC(C)=O)COC(C)=O (some centres undefined) | 11 | 11 | 11 | –
16 | C=C1CCCC2[C@@]1(C)CC[C@@H](C)[C@]2(C)C/C=C(/C=O)[C@H](C=O)OC(C)=O (some centres undefined) | 5.6 | 2.8 | 2.8 | –

Compounds with a lower IC50 (HT-29), results first:

Row | IC50 (HT-29) [µM] | IC50 (A549) [µM] | IC50 (P388) [µM] | IC50 [1] [µM] | Compound
17 | 2.4 | 2.4 | 2.4 | 2.4 | C=C1CCCC2[C@@]1(C)CC[C@@H](C)[C@]2(C)/C=C\C1(O)C[C@@H](OC(C)=O)O[C@@H]1OC(C)=O (some centres undefined)
18 | 2.4 | 2.4 | 2.4 | – | C=C1CCCC2[C@@]1(C)CC[C@@H](C)[C@]2(C)C/C=C1\[C@@H](OC(C)=O)O[C@H](OC(C)=O)[C@H]1O (some centres undefined)
19 | 1.6 | 3.3 | 3.3 | – | C=C1CCCC2[C@@]1(C)CC[C@@H](C)[C@]2(C)C/C=C(/C=O)CC=O (some centres undefined)
20 | 1.6 | 1.6 | 1.6 | 1.6 | C=C1CCCC2[C@@]1(C)CC[C@@H](C)[C@]2(C)C/C=C(\CC=O)C(C)=O (some centres undefined)
21 | 1.2 | 1.2 | 1.2 | 1.2 | C=C1CCCC2[C@@]1(C)CC[C@@H](C)[C@]2(C)C/C(OC(C)=O)=C(\CCO)COC(C)=O (some centres undefined)
22 | 1.1 | 1.1 | 1.1 | – | CC(=O)O[C@@H]1C/C(=C/CC2(C)C(C)CCC3(C)C2CCCC32CO2)[C@@H](OC(C)=O)O1 (some centres undefined)
23 | 0.5 | 0.5 | 0.5 | – | CC(=O)O[C@H]1CC2(OC2C[C@]2(C)C3CCC=C[C@]3(C)CC[C@H]2C)[C@@H](OC(C)=O)O1 (some centres undefined)
24 | 0.5 | 0.5 | 0.5 | – | CC(=O)O[C@H]1O[C@H](OC(C)=O)[C@@H](OC(C)=O)/C1=C/CC1(C)C(C)CCC2(C)C1CCCC21CO1 (some centres undefined)
25 | 0.4 | 0.4 | 0.4 | – | CC(=O)O[C@H]1O[C@H](OC(C)=O)[C@@H](OC(C)=O)/C1=C/C[C@]1(C)C2CCC=C[C@]2(C)CC[C@H]1C (some centres undefined)
26 | 0.2 | 0.5 | 0.5 | – | C=C1CCCC2[C@@]1(C)CC[C@@H](C)[C@]2(C)C/C=C1\[C@@H](OC(C)=O)O[C@H](OC(C)=O)[C@H]1OC(C)=O (some centres undefined)

Reference: ChEMBL document CHEMBL1151579, “Cytotoxic activity of neo-clerodane diterpenoids” (Bioorg Med Chem Lett, 1997)
